Earlier results as cited in patent US20250268834A1, “IONIC LIQUID SALTS OF ACTIVE PHARMACEUTICAL INGREDIENTS” (GlaxoSmithKline Consumer Healthcare Holdings (US) LLC, priority 2021, published 2025).

Conditions: hydrolysis of amide to 4-aminophenol in liquids

pH with lowest hydrolysis levels of APAP: 5-6
SMILES: CC(=O)Nc1ccc(O)cc1 [APAP, acetaminophen]
